# Source: ChEMBL document CHEMBL3352542, “Synthesis, biological evaluation and molecular modeling study of 2-(1,3,4-thiadiazolyl-thio and 4-methyl-thiazolyl-thio)-quinazolin-4-ones as a new class of DHFR inhibitors” (Bioorg Med Chem Lett, 2014)
# Activity calls are given as the source filed them. The calls are words filed in the database; no cut-off is given here.
# Experiments:
# NCI-H522 = experiment: Growth inhibition of human NCI-H522 cells at 10 uM after 48 hrs; type: functional; settings: NCI-H522, 48 h, read-out: GI
# [1] = Growth inhibition of human LOXIMVI cells at 10 uM after 48 hrs; type: functional; settings: LOX IMVI, read-out: GI
# [2] = Growth inhibition of human UACC62 cells at 10 uM after 48 hrs; type: functional; settings: UACC-62, 48 h, read-out: GI
# K562 = experiment: Growth inhibition of human K562 cells at 10 uM after 48 hrs; type: functional; settings: K562, 48 h, read-out: GI
# [3] = Growth inhibition of human OVCAR4 cells at 10 uM after 48 hrs; type: functional; settings: OVCAR-4, 48 h, read-out: GI
# Escherichia coli = experiment: Antimicrobial activity against Escherichia coli assessed as inhibition zone at 200 ug/disk after 24 hrs by disc-diffusion method; type: functional; settings: read-out: IZ
# NCI-H23 = experiment: Growth inhibition of human NCI-H23 cells at 10 uM after 48 hrs; type: functional; settings: NCI-H23, 48 h, read-out: GI
# SR = experiment: Growth inhibition of human SR cells at 10 uM after 48 hrs; type: functional; settings: read-out: GI
# T47D = experiment: Growth inhibition of human T47D cells at 10 uM after 48 hrs; type: functional; settings: read-out: GI
# [4] = Growth inhibition of human UO31 cells at 10 uM after 48 hrs; type: functional; settings: UO-31, 48 h, read-out: GI
# Pseudomonas aeruginosa = experiment: Antimicrobial activity against Pseudomonas aeruginosa assessed as inhibition zone at 200 ug/disk after 24 hrs by disc-diffusion method; type: functional; settings: read-out: IZ
# Staphylococcus aureus [5] = experiment: Antimicrobial activity against Staphylococcus aureus assessed as inhibition of visible growth after 24 hrs by disc-diffusion method; type: functional, organism-based
# Staphylococcus aureus [6] = experiment: Antimicrobial activity against Staphylococcus aureus assessed as inhibition zone at 200 ug/disk after 24 hrs by disc-diffusion method; type: functional; settings: read-out: IZ
# SF-268 = experiment: Growth inhibition of human SF268 cells at 10 uM after 48 hrs; type: functional; settings: SF-268, 48 h, read-out: GI
# [7] = Growth inhibition of human RPMI8226 cells at 10 uM after 48 hrs; type: functional; settings: RPMI-8226, 48 h, read-out: GI
# Malme-3M = experiment: Growth inhibition of human MALME-3M cells at 10 uM after 48 hrs; type: functional; settings: read-out: GI
# Dihydrofolate reductase = biological target: T1, Dihydrofolate reductase (Bos taurus, UniProt P00376); experiment: Inhibition of bovine liver DHFR
# T1 sequence (P00376 whole entry): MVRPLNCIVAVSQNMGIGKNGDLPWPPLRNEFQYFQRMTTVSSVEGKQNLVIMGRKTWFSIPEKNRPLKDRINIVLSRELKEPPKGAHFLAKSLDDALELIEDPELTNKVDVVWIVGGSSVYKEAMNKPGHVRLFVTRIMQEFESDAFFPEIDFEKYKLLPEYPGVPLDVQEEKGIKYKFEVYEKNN
# [8] = Growth inhibition of human HOP92 cells at 10 uM after 48 hrs; type: functional; settings: HOP-92, 48 h, read-out: GI
# Candida albicans = experiment: Antimicrobial activity against Candida albicans assessed as inhibition zone at 200 ug/disk after 24 hrs by disc-diffusion method; type: functional; settings: read-out: IZ
# Bacillus subtilis [9] = experiment: Antimicrobial activity against Bacillus subtilis assessed as inhibition of visible growth after 24 hrs by disc-diffusion method; type: functional, organism-based
# [10] = Growth inhibition of human OVCAR3 cells at 10 uM after 48 hrs; type: functional; settings: OVCAR-3, 48 h, read-out: GI
# NCI-H226 = experiment: Growth inhibition of human NCI-H226 cells at 10 uM after 48 hrs; type: functional; settings: NCI-H226, 48 h, read-out: GI
# [11] = Growth inhibition of human PC3 cells at 10 uM after 48 hrs; type: functional; settings: PC-3, 48 h, read-out: GI
# [12] = Growth inhibition of human MOLT4 cells at 10 uM after 48 hrs; type: functional; settings: MOLT-4, 48 h, read-out: GI
# Bacillus subtilis [13] = experiment: Antimicrobial activity against Bacillus subtilis assessed as inhibition zone at 200 ug/disk after 24 hrs by disc-diffusion method; type: functional; settings: read-out: IZ
compound,measurement,setting,value
Cc1nc(N)sc1Sc1nc2ccc(Cl)cc2c(=O)n1Cc1ccccc1,inhibition of growth at 10 µM,NCI-H522,35.4%
same,inhibition of growth at 10 µM,[1],23.2%
same,inhibition of growth at 10 µM,[2],15.2%
same,inhibition of growth at 10 µM,K562,17.6%
same,inhibition of growth at 10 µM,[3],20.9%
same,zone of inhibition at 200 µg/disc,Escherichia coli,12 mm
same,inhibition of growth at 10 µM,NCI-H23,13.6%
same,inhibition of growth at 10 µM,SR,16.1%
same,inhibition of growth at 10 µM,T47D,14.7%
same,inhibition of growth at 10 µM,[4],36.4%
same,zone of inhibition at 200 µg/disc,Pseudomonas aeruginosa,8 mm
same,Activity,Staphylococcus aureus [5],Active
same,zone of inhibition at 200 µg/disc,Staphylococcus aureus [6],18 mm
same,inhibition of growth at 10 µM,SF-268,13.3%
same,inhibition of growth at 10 µM,[7],20.8%
same,inhibition of growth at 10 µM,Malme-3M,15.9%
same,IC50,Dihydrofolate reductase,5 µM
same,inhibition of growth at 10 µM,[8],16.8%
same,zone of inhibition at 200 µg/disc,Candida albicans,8 mm
same,Activity,Bacillus subtilis [9],Active
same,inhibition of growth at 10 µM,[10],14.9%
same,inhibition of growth at 10 µM,NCI-H226,10.4%
same,inhibition of growth at 10 µM,[11],15.8%
same,inhibition of growth at 10 µM,[12],16%
same,zone of inhibition at 200 µg/disc,Bacillus subtilis [13],19 mm
